According to patent US20240415819A1, “MACROCYCLIC COMPOUNDS AS PROTEASOME SUBUNIT BETA TYPE-5 INHIBITORS” (Lead Discovery Center GmbH, priority 2021, published 2024):

Experiments:
[1] = molecular target: T1, β5 subunit of the human immunoproteasome (IPS) (Homo sapiens, UniProt P28062); assay: β5 inhibition assay, human immunoproteasome (Suc-LLVY-AMC); format: biochemical; settings: IC50 class, Suc-LLVY-AMC substrate
T1 construct: purchased Boston Biochem E-370
Procedure, shortened: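 Human immunoproteasome (1 nM final) was preincubated 10 min at RT with compound in 100 mM HEPES pH 7.5, 50 mM NaCl, 0.02% SDS, 1 mM DTT. Suc-LLVY-AMC (22.6 μM final) was then added for 4 h at RT in the dark. After stopping with 1 μM bortezomib, AMC fluorescence was read (ex 355/em 460 nm).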

[2] = molecular target: T2, β5 subunit of the human constitutive proteasome (CPS) (Homo sapiens, UniProt P28074); assay: β5 inhibition assay, human constitutive proteasome (Suc-LLVY-AMC); format: biochemical; settings: IC50 class, Suc-LLVY-AMC substrate
T2 construct: purchased Boston Biochem E-360
Procedure: The enzymatic activity of the β5 subunit of the human constitutive proteasome (CPS) is analyzed. In another assay, which differs from the assay of the human constitutive proteasome only in using the human immunoproteasome (IPS) the enzymatic activity of the β5 subunit of the human immunoproteasome (IPS) is analyzed. […] Inhibition is indicated as IC50 [nM] (“-”=not measured).

HT-29 cells = assay: CellTiter-Glo luminescent cell viability assay with HT-29 cells (72h incubation); format: cell-based, human; settings: Homo sapiens, HT-29, HT29 cells, read-out: CTG HT29
Procedure, shortened: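 400 cells per well in DMEM/10% FCS were dosed after 24 h and kept 72 h at 37 °C, 5% CO2. ATP-based luminescence (CellTiter-Glo) normalized to DMSO and 10 μM staurosporine controls; IC50 by dose-response fit.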

Row | SMILES | IC50 [1] | IC50 [2] | IC50 (HT-29 cells)
1 | Cc1ccc2cc1CNC(=O)[C@H](CCc1ccccc1)NC(=O)[C@@H](NC1COC1)CC(=O)N1CCCC(CCO2)C1 (stereo partly drawn) [Compound 35, (9S,12S)-5^4-methyl-12-(oxetan-3-ylamino)-9-phenethyl-4-oxa-7,10-diaza-1(3,1)-piperidina-5(1,3)-benzenacyclotetradecaphane-8,11,14-trione] | < 100 nM | < 100 nM | 100 to 500 nM
2 | Cc1ccc2cc1CNC(=O)C(CCc1ccncc1)NC(=O)[C@@H](NC(=O)C1(c3ccc(N)cc3)CC1)CC(=O)N1CCCC(CCO2)C1 (stereo partly drawn) [Compound 343, 1-(4-aminophenyl)-N-((12S)-5^4-methyl-8,11,14-trioxo-9-(2-(pyridin-4-yl)ethyl)-4-oxa-7,10-diaza-1(3,1)-piperidina-5(1,3)-benzenacyclotetradecaphane-12-yl)cyclopropane-1-carboxamide] | < 100 nM | < 100 nM | < 100 nM
3 | CC(=O)N[C@H]1CC(=O)N2CCCC(CCOc3ccc(C)c(c3)CNC(=O)C(CCc3ccncc3)NC1=O)C2 (stereo partly drawn) [Compound 551, N-((12S)-5^4-methyl-8,11,14-trioxo-9-(2-(pyridin-4-yl)ethyl)-4-oxa-7,10-diaza-1(3,1)-piperidina-5(1,3)-benzenacyclotetradecaphane-12-yl)acetamide] | < 100 nM | < 100 nM | < 100 nM
4 | Cc1ccc2cc1CNC(=O)[C@H](CCc1ccccc1)NC(=O)[C@@H](NC(=O)OCc1ccccc1)CC(=O)N1CCCC(CCO2)C1 (stereo partly drawn) [Compound 7, benzyl ((9S,12S)-5^4-methyl-8,11,14-trioxo-9-phenethyl-4-oxa-7,10-diaza-1(3,1)-piperidina-5(1,3)-benzenacyclotetradecaphane-12-yl)carbamate] | < 100 nM | < 100 nM | < 100 nM

Second part, the molecule after the results:

Row | IC50 [1] | IC50 [2] | IC50 (HT-29 cells) | SMILES
5 | < 100 nM | < 100 nM | < 100 nM | Cc1ccc2cc1CNC(=O)C(CCc1ccncc1)NC(=O)[C@@H](NC(=O)Cc1nnc(N)s1)CC(=O)N1CCCC(CCO2)C1 (stereo partly drawn) [Compound 342, 2-(5-amino-1,3,4-thiadiazol-2-yl)-N-((12S)-5^4-methyl-8,11,14-trioxo-9-(2-(pyridin-4-yl)ethyl)-4-oxa-7,10-diaza-1(3,1)-piperidina-5(1,3)-benzenacyclotetradecaphane-12-yl)acetamide]
6 | < 100 nM | < 100 nM | < 100 nM | COC(=O)N(CC1NC(=O)[C@@H](NC(C)=O)CC(=O)N2CCCC(CCOc3ccc(C)c(c3)CNC1=O)C2)c1ccccc1 (stereo partly drawn) [Compound 560, methyl (((12S)-12-acetamido-5^4-methyl-8,11,14-trioxo-4-oxa-7,10-diaza-1(3,1)-piperidina-5(1,3)-benzenacyclotetradecaphane-9-yl)methyl)(phenyl)carbamate]
7 | < 100 nM | < 100 nM | < 100 nM | CC(=O)N[C@H]1CC(=O)N2CCCC(CCOc3ccc(C)c(c3)CNC(=O)C(c3cc(C)sn3)NC1=O)C2 (stereo partly drawn) [Compound 556, N-((12S)-5^4-methyl-9-(5-methylisothiazol-3-yl)-8,11,14-trioxo-4-oxa-7,10-diaza-1(3,1)-piperidina-5(1,3)-benzenacyclotetradecaphane-12-yl)acetamide]
8 | < 100 nM | < 100 nM | < 100 nM | Cc1ccc2cc1CNC(=O)[C@H](CCc1ccccc1)NC(=O)[C@@H](NC(=O)OCc1ccccc1)CCCCC(=O)N1CC(CCO2)C1 [Compound 353, benzyl ((9S,12S)-5^4-methyl-8,11,17-trioxo-9-phenethyl-4-oxa-7,10-diaza-1(3,1)-azetidina-5(1,3)-benzenacycloheptadecaphane-12-yl)carbamate]
9 | < 100 nM | < 100 nM | < 100 nM | Cc1ccc2cc1CNC(=O)[C@H](CCc1ccccc1)NC(=O)[C@@H](NC(=O)Cc1ccccc1)CC(=O)N1CCCC(CCO2)C1 (stereo partly drawn) [Compound 29, N-((9S,12S)-5^4-methyl-8,11,14-trioxo-9-phenethyl-4-oxa-7,10-diaza-1(3,1)-piperidina-5(1,3)-benzenacyclotetradecaphane-12-yl)-2-phenylacetamide]
